Measured values as given in patent EP4459287A1, “METHODS AND TOOLS FOR DETECTING THE IMPACT OF COMPOUNDS ON PROTEIN, RNA OR DNA INTERACTIONS” (Synsight "Génopole Entreprises", priority 2023, dated 2024).

Assays:
TDP-43 = assay: Four TDP-43 tests (stress granule enrichment, subcellular localization, CFTR alternative splicing, G146A aggregation); format: cell-based
Description: The 13 selected compounds have then been tested in the three cellular tests, i.e. enrichment of wt TDP-43 in stress granules and their subcellular localization in presence of the compounds to be tested, and the effects of the compounds to be tested on the alternative splicing of the cystic fibrosis transmembrane conductance regulator (CFTR) gene by wt TDP-43. Finally, the effects of the 13 compounds on the aggregation of the G146A mutant of TDP-43 has been tested.

[1] = cellular data, Vu et al., 2013; read-out: IC50 MTT assay; cited from earlier work
p53/MDM2 interaction = target: T1, p53/MDM2 interaction (Homo sapiens, UniProt Q00987); assay: MT bench cell-based assay of p53/MDM2 interaction on HCS (PCC co-localization score); conditions: for inhibition of the p53/MDM2 interaction: U-2 OS cells
T1 construct: Human p53 and MDM2 full length cDNA were amplified by PCR; expressed in transfected cells; host or cells: U-2 OS (human osteosarcoma)
T1 sequence (Q00987 whole entry): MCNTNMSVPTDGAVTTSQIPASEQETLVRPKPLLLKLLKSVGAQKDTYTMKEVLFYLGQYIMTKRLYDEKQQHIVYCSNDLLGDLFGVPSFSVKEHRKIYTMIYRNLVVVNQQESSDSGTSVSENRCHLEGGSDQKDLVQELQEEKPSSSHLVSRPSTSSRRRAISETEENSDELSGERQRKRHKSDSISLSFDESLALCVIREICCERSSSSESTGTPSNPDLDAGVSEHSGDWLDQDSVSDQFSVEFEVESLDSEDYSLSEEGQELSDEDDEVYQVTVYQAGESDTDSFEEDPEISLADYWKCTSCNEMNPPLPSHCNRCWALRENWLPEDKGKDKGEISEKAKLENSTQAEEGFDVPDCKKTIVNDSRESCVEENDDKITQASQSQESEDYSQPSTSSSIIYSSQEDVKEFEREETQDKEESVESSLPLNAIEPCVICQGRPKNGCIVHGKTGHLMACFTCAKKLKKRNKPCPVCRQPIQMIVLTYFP
Description: The MT bench was done using Human Osteosarcoma (U-2 OS) cell line which is the reference for cellular imagery. U-2 OS cells were cultured at 37°C in a humidified atmosphere with 5% CO2 in Dulbecco's modified Eagle's medium (DMEM, Life Technologies) supplemented with 10% FBS (Fetal Bovine Serum, Life Technologies) and 1% penicillin/streptomycin.
The generation of the cellular plate (seeding, transfection, treatment) was done automatically using the liquid handler BRAVO from Agilent equipped with a 96-LT (Large Tips) head. U-2 OS cells were seeded on black 96-well plates cell carrier ultra (PerkinElmer) at a density of 18.000 cells per well and after 24h incubation in a humidified incubator at 37°C with 5% CO2 were co-transfected with 12µg human p53-FL(SEQ ID N°15)_C_RFP- MBD and 03µg human MDM2-FL(SEQ ID N°21)_C_GFP plasmids for the positive control (untreated condition) or 12µg human p53-F19AW23AL26A(SEQ ID N°20)_C_RFP-MBD and 0.3µg human MDM2-FL(SEQ ID N°21)_C_GFP plasmids corresponding to the negative control (non-interacting condition / treated condition) using 0.5µg Lipofectamine 2000 (Invitrogen) in optiMEM for 18h.
After 18h of transfection, cells were fixed with ice-cold methanol 100% for 10min at -20°C, washed with PBS and then further fixed with 4% Para FormAldehyde (PFA) in PBS freshly prepared for 10min at RT. […] After washing with PBS, cell nuclei were stained with DAPI (0.1µg/mL) for 5min at RT and samples kept into PBS for fluorescence microscopy imaging. The cellular fluorescent signal was acquired on HCS imaging system Opera Phenix from PerkinElmer, using a 40X water immersion 1.1NA objective and with Harmony® software.
After image acquisition, successive building blocks from Harmony® software was used for image segmentation (find nuclei, find cytoplasm, and select population through threshold on GFP and RFP maximum and mean intensities, as well as cell area). Both images were then filtered using SER Ridge filters to highlight microtubule structures in the cytoplasm.
The PCC is a well-established correlation score to measure co-localization and calculated as follows [formula] where Ri and Gi are the pixel intensity values and Rav and Gav are the means of red and green channel, respectively. The values are range between +1 (perfect correlation) to -1 (perfect inverse correlation), with 0 being the absence of co-localization. Thus, the PCC values reflect the co-localization between bait and prey proteins into cytoplasm, translating the interaction on the microtubule network.
This normalization was done by extrapolating the PCC values relatively to the controls, by using the mean of negative control wells and the mean of positive control wells.

MDM2-FL_C_GFP (human) = MDM2-FL_C_GFP (human) (UniProt Q00987); assay: MT bench normalized PCC score, fixed U-2 OS cells
Chain of MDM2-FL_C_GFP (human) (Q00987 whole entry): as above

Nc1ncnc2c1c(I)cn2[C@@H]1O[C@H](CO)[C@@H](O)[C@H]1O [5-iodotubercidin]
effect in the four tests (TDP-43): showed an effect on at least two of the four tests

O=C1C(=O)c2ccccc2-c2ccccc21 [9,10-Phenanthrenequinone]
effect in the four tests (TDP-43): showed an effect on at least two of the four tests

O=C1Nc2ccc3ncsc3c2C1=Cc1cnc[nH]1 [PKRi]
effect in the four tests (TDP-43): showed an effect on at least two of the four tests

CCOc1cc(C(C)(C)C)ccc1C1=N[C@@](C)(c2ccc(Cl)cc2)[C@@](C)(c2ccc(Cl)cc2)N1C(=O)N1CCN(CCCS(C)(=O)=O)CC1 [RG7112]
IC50 [1]: 0.4 µM | inhibition of the p53/MDM2 interaction (p53/MDM2 interaction; 0.05µM (low concentration)): weak inhibition of the interaction | inhibition of the p53/MDM2 interaction (p53/MDM2 interaction; 0.5µM (medium concentration)): moderate inhibition of the interaction | inhibition of the p53/MDM2 interaction (p53/MDM2 interaction; 5µM (high concentration)): strong inhibition of the interaction | inhibition of the p53/MDM2 interaction (p53/MDM2 interaction; 50µM (high concentration)): strong inhibition of the interaction | disruption of p53/MDM2 interaction and re-localization of MDM2 in the nucleus (p53/MDM2 interaction; increasing concentrations 0.05µM, 0.5µM, 5µM, 50µM, fixed U-2 OS cells): dose-dependent manner

p53-F19A_C_RFP-MBD
percent of the interaction abrogated (against wild-type p53) (MDM2-FL_C_GFP (human)): > 90%
